Results from a melting point compilation (Tetko et al.).

Row | SMILES | melting point
1 | COC(=O)C=Cc1ccc(OC)c(OC2CCCC2)c1 | 54 to 57 °C
2 | OCCN(CCO)c1ccc(N=Nc2ccccc2)cc1 | 134 °C
3 | NCC(O)c1ccc(O)c(O)c1 (centres undefined) | 217 °C
4 | N=C(N)NS(=O)(=O)c1cc(C(F)(F)F)cc(C(F)(F)F)c1 | 194 to 197 °C
5 | O=P(c1ccccc1)(c1ccccc1)C1C=COC2=C1CCCC2 (centres undefined) | 176 to 177 °C
6 | COC(=O)c1ccc(OC)nc1 | 51 °C
7 | COc1cc(-c2nnc3sc(-c4cccnc4)nn23)cc(OC)c1OC | 175 °C
8 | O=C(N(c1ccccc1)c1ccccc1)C(F)(F)C(F)(F)C(F)(F)C(F)(F)C(F)(F)C(F)(F)C(F)(F)C(F)(F)F | 92 °C
9 | O=C(O)c1cccnc1Oc1ccccc1 | 181 °C
10 | NNC(=O)c1cccc(O)c1 | 158 °C
11 | CCC(=O)Oc1ccc(C(CC)=C(CC)c2ccc(OC(=O)CC)cc2)cc1 | 104 °C
12 | OCC1(c2ccc(Cl)cc2)CC1 | 50 to 54 °C
13 | CCOC(=O)c1sc(C)nc1-c1ccccc1 | 44 to 47 °C
14 | O=[N+]([O-])c1ccc(NN=CC2=C(C#Cc3ccccc3)CCCC2)c([N+](=O)[O-])c1 | 198 to 199 °C
15 | CCOP(=S)(OCC)Oc1ccc2c(C)c(Cl)c(=O)oc2c1 | 95 °C
16 | CC#CC1(O)CCCCC1 | 48 °C
17 | CC12CCC3(CC1CCC1C2CCC2(C)C1CCC2(C)O)OCCO3 (centres undefined) | 192 to 193 °C
18 | CCCCCCCCCCCC(=O)c1ccccc1 | 47 °C
19 | CCOC(=O)c1cn(C(C)=O)nc1N | 110 °C
20 | N#Cc1ccc(CCl)cc1 | 79 °C
21 | O=C1c2ccccc2C(=O)N1Cl | 185 to 189 °C
22 | CC1(O)Cc2cccc(Cl)c21 (centres undefined) | 94 °C
23 | CC(C)(C)OC(=O)N[C@H](CC#N)Cc1ccccc1 | 120 to 125 °C
24 | NC(=O)c1cc(Cl)cc(Cl)c1 | 160 to 162 °C
25 | Cc1nc(-c2cccc(Br)c2)cs1 | 56 to 60 °C
26 | CCC(C)[C@@H]1NC(=O)OC1=O (some centres undefined) | 66 °C

Row | SMILES | melting point
27 | Cc1ccc(P(c2ccccc2)c2ccccc2)cc1 | 66 to 68 °C
28 | COC(=O)c1ccnnc1 | 66 °C
29 | c1ccc2c(c1)ccc1c3ccccc3ccc21 | 258 °C
30 | NCc1cc(-c2ccco2)on1 | 46 to 49 °C
31 | Nc1nc(=O)c2[nH]nnc2[nH]1 | 300 °C
32 | Cc1ccc(S)cc1 | 43 °C
33 | CC(=O)OCC1C(=O)C2(C)CCC1C2(C)C (centres undefined) | 148 °C
34 | [O-][N+](=Nc1ccccc1)c1ccc(N=Nc2ccc([N+]([O-])=Nc3ccccc3)cc2)cc1 | 138 to 139 °C
35 | C=CCNC(N)=S | 78 °C
36 | Cc1cc(N=Nc2ccc(N=Nc3ccccc3)cc2)ccc1N=Nc1ccc(N=Nc2ccccc2)cc1 | 209 °C
37 | OC(O)C(Br)(Br)Br | 53.5 °C
38 | COC1=CC(=O)CC(C)C12Oc1c(Cl)c(OC)cc(OC)c1C2=O (centres undefined) | 219 °C
39 | CC(=O)Oc1c(-c2ccccc2)[nH]c2cc([N+](=O)[O-])ccc12 | 191 °C
40 | Clc1ncnc2c1cnn2-c1ccccc1 | 126 to 128 °C
41 | CC(=O)N1CCc2ccc(N)cc21 | 182 to 185 °C
42 | CC(C)CC1=C/C(=C/c2ccc(-c3cccc([N+](=O)[O-])c3)o2)C(=O)O1 | 164 °C
43 | O=C(O)CCC(=O)Nc1ccccc1 | 148 °C
44 | CC1=NNC(=O)C1=NNc1cccc(F)c1 | 218 °C
45 | Cc1ncccn1 | -4 °C
46 | Cc1ccnc(C)n1 | -4 °C
47 | Oc1ccc(C(F)(F)F)cn1 | 145 to 148 °C
48 | Cc1cc(C)c2c(=O)n3ccccc3cc2c1 | 114 °C
49 | CN(C)CCN(C)CCN(C)C | 18 °C
50 | Ic1cccc(-c2ccccc2)c1 | 26.5 °C
51 | c1ccc(-c2cccc(-c3ccccc3)n2)cc1 | 78 °C
52 | O=Cc1ccc(OCc2ccc([N+](=O)[O-])cc2)cc1 | 130 °C

Row | SMILES | melting point
53 | CC(C)COC(=O)c1ccc(N)cc1 | 64.5 °C
54 | O=C(Cl)c1csc(-c2cccs2)n1 | 93 to 94 °C
55 | O=C(OCC(=O)N1CCC(O)CC1)c1ccccc1 | 122 °C
56 | CCOC(OCC)c1cccc2c(Br)ccc([N+](=O)[O-])c12 | 95 °C
57 | CCCCCCCCC(O)C(O)CCCCCCCC(=O)O (centres undefined) | 90 °C
58 | CC(NC(CCc1ccccc1)C(=O)O)C(=O)N1CCCC1C(=O)O (centres undefined) | 150 °C
59 | COc1ccc(F)c(CBr)c1F | 55 °C
60 | CCCOC(=O)C1=C(C)NC(=O)NC1c1ccc2c(c1)OCO2 (centres undefined) | 184 to 185 °C
61 | Cn1nc(C2CC2)cc1N | 120 to 123 °C
62 | O=c1[nH][nH]c(=O)c2cc3c(cc12)CCC3 | 310 °C
63 | CC(=O)C=P(c1ccccc1)(c1ccccc1)c1ccccc1 | 204 °C
64 | Brc1nc(Br)c(Br)[nH]1 | 208 to 212 °C
65 | Cc1noc(C)c1[N+](=O)[O-] | 57 to 60 °C
66 | Cc1c(N)cc([N+](=O)[O-])cc1[N+](=O)[O-] | 174 °C
67 | O=C(N=C=S)c1ccc(Cl)cc1 | 45 to 46 °C
68 | N#C/C(=C\c1cccc(O)c1)c1nc2ccccc2[nH]1 | 299 to 300 °C
69 | Cc1nc(/C(C#N)=C\c2ccccc2Cl)sc1/N=N/c1ccc(Cl)cc1 | 198 to 200 °C
70 | O=C(O)c1cn(C2CCCCC2)c2ccccc2c1=O | 237 to 238 °C
71 | COc1cc(C=CC(=O)O)c([N+](=O)[O-])cc1OC | 270 °C
72 | CCOc1ccc(NC(=O)OC(C)C)cc1OCC | 100 °C
73 | CCCCC(CC)COC(C)=O (centres undefined) | -45 °C
74 | O=C(Nc1ccccc1)c1cc([N+](=O)[O-])cc(S(=O)(=O)Nc2ccccc2)c1 | 188 °C
75 | O=C(O)c1cccc(-c2cncnc2)c1 | 244 to 245 °C
76 | Cc1ccc(CS(=O)(=O)Cl)cc1 | 80 to 85 °C
77 | S=c1oc2ccccc2n1CSCCCS | 188 °C
78 | O=C(O)CN=C(S)C(=S)NCC(=O)O | 220 °C

Row | SMILES | melting point
79 | Cn1[nH]c([N+](=O)[O-])c2c(=O)ccnc1-2 | 223 °C
80 | N#Cc1cn(-c2ccccc2Cl)c(=O)[nH]c1=O | 255 to 258 °C
81 | CCN(CC)CN1C(=O)/C(=C\c2ccc(Cl)cc2)SC1=S | 89 °C
82 | COC(=O)c1scc(Br)c1O | 80 °C
83 | C=C1C(=O)C23C4CC5C(C)(C)CCC(OC(C)=O)C5(C(=O)O4)C2C(OC(C)=O)CC1C3O (centres undefined) | 238 °C
84 | c1ccc(C23CC4CC(CC(C4)C2)C3)cc1 | 84 to 85 °C
85 | COC1OC(CNC(=O)N(CCCl)N=O)C(O)C(O)C1O (centres undefined) | 111 °C
86 | CN1C(=O)C(=NNc2ccc(F)cc2)C(=O)N(C)C1=O | 191 °C
87 | O=Cc1ccc(-c2cccc(C(=O)O)c2)cc1 | 166 °C
88 | Nc1cccc(F)c1 | -5 °C
89 | COC(=O)C1(C(=O)OC)Cc2cccc(OC)c2C(=O)O1 | 88.7 to 89.7 °C
90 | NC(=O)c1ccc(CC(=O)c2ccc(Cl)cc2)cc1 | 221 to 223 °C
91 | O=C(O)c1cc2cc([N+](=O)[O-])ccc2o1 | 274 to 275 °C
92 | O=[N+]([O-])c1ccc(Cl)nc1Cl | 64 °C
93 | N#CCOc1ccc(C2=NCCS2)cc1 | 83 to 85 °C
94 | CC(C)(C(=O)O)n1nc2ccccc2n1 | 152 °C
95 | CCOc1ccc2c(c1)C(C)=CC(C)(C)N2 | < -20 °C
96 | CC(C)(C)OC(=O)N1CCN(Cc2cccc([N+](=O)[O-])c2)CC1 | 84 to 85 °C
97 | CC(=O)OC1(C(C)=O)CCC2C3C=C(Cl)C4=CC(=O)CCC4(C)C3CCC21C (centres undefined) | 213 °C
98 | [O-][P+](c1ccccc1)(c1ccccc1)C1C=C(c2ccccc2)OC2=C1CCCC2 (centres undefined) | 177 °C
99 | Cc1ccc2sc(C(=O)O)cc2c1 | 222 to 223 °C
100 | O=C(Cc1ccccc1)OCCc1ccccc1 | 26.5 °C
101 | Cn1c(=O)c(C2=NNC(=O)C2=NNc2cccc(Br)c2)c(O)c2ccccc21 | 240 °C
102 | Cc1cc(C)c([N+](=O)[O-])cc1C | 71 °C
103 | O=C1OC(=O)[C@H]2[C@@H]1[C@@H]1C3C=CC([C@H]21)[C@H]1C(=O)OC(=O)[C@@H]31 | 355 to 357 °C
104 | Sc1cc(Cl)cc(Cl)c1 | 59 to 61 °C

Row | SMILES | melting point
105 | CCC1CC(NC(C)=O)CC(C)(C)N1O (centres undefined) | 142 to 145 °C
106 | Cc1nc(C#N)cs1 | 58 °C
107 | Cc1cc(Cl)ccc1Oc1ncccc1[N+](=O)[O-] | 89 to 91 °C
108 | CC(=CC(=O)O)C1CCCCC1 | 85.5 °C
109 | CC(C)(C)NC(=O)C(C(F)(F)F)C(F)(F)F | 201 °C
110 | CC(=O)Oc1ccccc1C(=O)OC(=O)c1ccccc1OC(C)=O | 83 °C
111 | COc1cc2c(cc1OC)C(c1ccccc1Cl)N(C(C)=O)CC2 (centres undefined) | 186 to 188 °C
112 | O=C1c2ccccc2C(=O)N1SC(Cl)(Cl)Cl | 178 °C
113 | CC(C)(C)c1ncc(C(=O)Nc2cccc(Br)c2)nc1Cl | 105 °C
114 | CC1=NN(c2ccccc2)C(=O)C1=CC1C(=O)N(c2ccccc2)N=C1C (centres undefined) | 180 to 181 °C
115 | Cc1ccc(C(=O)O)c(C(=O)O)c1 | 146 to 149 °C
116 | OCC(F)(F)C(F)(F)CO | 85 to 87 °C
117 | OCc1cccc(Oc2ccccn2)c1 | 57 to 59 °C
118 | NNc1ccc(F)cc1F | 65 to 67 °C
119 | O=C(O)CCc1ccc(Br)cc1 | 135 °C
120 | CC(C)(C)C(=O)Nc1ccc2nn(C3CCCC3)nc2c1 | 136 °C
121 | COc1ccc(OC)c(C#N)c1 | 82 °C
122 | CC(=O)CS(C)(=O)=O | 54 °C
123 | C=CN1CCCCCC1=O | 34 °C
124 | O=C(O)C=CC=Cc1ccc2c(c1)OCO2 | 215 °C
125 | CC(=O)c1cccc(N=C=O)c1 | 33 to 34 °C
126 | CCC(C)CC | -118 °C
127 | O=C(O)c1cc(O)ccc1F | 205 °C
128 | OC1(C2(O)CCCCC2)CCCCC1 | 127 °C
129 | C1CCC(CCCCC2CCCCC2)CC1 | 12 °C
